Laboratory results: patent US12195482B1 (Arcus Biosciences, Inc., priority 2022, dated 2025)

Experiments:
[1] = biological target: T1, recombinant human MER (Homo sapiens, UniProt Q12866); test: Biochemical potency, HTRF KinEASE-TK kinase assay; conditions: 1 nM MER, 700 μM ATP
T1 construct: purchased Invitrogen
T1 sequence (Q12866 21-999): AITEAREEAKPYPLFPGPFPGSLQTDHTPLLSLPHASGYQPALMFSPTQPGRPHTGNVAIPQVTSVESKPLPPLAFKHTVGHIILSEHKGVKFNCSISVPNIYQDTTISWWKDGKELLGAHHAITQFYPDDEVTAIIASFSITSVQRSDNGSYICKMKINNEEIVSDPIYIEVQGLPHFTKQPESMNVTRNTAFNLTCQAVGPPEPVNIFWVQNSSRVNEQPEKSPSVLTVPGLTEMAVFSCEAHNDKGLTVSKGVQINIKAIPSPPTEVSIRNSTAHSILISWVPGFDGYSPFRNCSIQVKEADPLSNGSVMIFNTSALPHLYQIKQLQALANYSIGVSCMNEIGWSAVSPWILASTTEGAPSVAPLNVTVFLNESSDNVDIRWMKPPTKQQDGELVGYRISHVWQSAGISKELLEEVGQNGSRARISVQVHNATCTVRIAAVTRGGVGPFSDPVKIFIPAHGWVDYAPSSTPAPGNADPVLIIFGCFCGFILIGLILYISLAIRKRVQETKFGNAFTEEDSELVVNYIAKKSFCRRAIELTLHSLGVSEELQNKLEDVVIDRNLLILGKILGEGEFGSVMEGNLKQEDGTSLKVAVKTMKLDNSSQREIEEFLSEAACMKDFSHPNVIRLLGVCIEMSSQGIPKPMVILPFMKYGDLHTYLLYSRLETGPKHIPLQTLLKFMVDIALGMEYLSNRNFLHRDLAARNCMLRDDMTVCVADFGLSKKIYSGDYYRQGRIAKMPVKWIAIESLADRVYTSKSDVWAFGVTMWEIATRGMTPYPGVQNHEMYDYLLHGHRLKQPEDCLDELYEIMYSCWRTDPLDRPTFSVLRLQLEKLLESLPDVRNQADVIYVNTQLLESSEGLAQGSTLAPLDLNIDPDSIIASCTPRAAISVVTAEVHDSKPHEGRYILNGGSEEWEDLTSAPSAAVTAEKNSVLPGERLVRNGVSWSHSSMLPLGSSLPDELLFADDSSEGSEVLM
How it was run: (§1)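 HTRF 665/620 readout after a 2 h RT kinase reaction (final 700 μM ATP, 800 nM biotinylated TK substrate, 1% DMSO, HEPES pH 7.4 buffer) gave percent activity. Final enzyme was 5 nM for AXL, 1 nM for TYRO3 or MER, each preincubated 1 h with compound.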

[2] = biological target: T2, recombinant human TYRO3 (Homo sapiens, UniProt Q06418); test: Biochemical potency, HTRF KinEASE-TK kinase assay; conditions: 1 nM TYRO3, 700 μM ATP
T2 construct: purchased Invitrogen
T2 sequence (Q06418 41-890): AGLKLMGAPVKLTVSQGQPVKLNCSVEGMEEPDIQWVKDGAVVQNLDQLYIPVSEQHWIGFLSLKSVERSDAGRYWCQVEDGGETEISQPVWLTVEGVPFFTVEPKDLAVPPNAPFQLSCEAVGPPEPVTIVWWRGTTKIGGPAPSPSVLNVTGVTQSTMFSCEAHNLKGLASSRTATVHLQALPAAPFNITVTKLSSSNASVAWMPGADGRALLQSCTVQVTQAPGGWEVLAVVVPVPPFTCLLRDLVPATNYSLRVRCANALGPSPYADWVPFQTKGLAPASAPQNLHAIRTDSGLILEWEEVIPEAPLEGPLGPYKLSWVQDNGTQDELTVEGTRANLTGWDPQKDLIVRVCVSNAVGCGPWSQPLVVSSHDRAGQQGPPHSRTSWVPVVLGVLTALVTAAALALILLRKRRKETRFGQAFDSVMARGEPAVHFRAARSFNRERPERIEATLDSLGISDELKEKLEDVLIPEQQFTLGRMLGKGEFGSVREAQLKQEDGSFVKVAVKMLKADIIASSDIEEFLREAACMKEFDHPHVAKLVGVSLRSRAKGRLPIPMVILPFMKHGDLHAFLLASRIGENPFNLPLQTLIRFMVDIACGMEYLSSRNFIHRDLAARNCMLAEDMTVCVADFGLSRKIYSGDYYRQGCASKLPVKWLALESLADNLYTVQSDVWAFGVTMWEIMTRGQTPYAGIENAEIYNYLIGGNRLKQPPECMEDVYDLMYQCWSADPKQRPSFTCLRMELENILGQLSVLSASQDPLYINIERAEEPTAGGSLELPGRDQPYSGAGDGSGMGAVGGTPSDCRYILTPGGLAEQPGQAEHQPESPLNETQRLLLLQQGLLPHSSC
How it was run: as §1

Compound	IC50 [1] [µM]	IC50 [2] [µM]
CS(=O)(=O)c1cccnc1-c1ccc(-c2n[nH]c3ncc(-c4ccc5c(c4)CC[C@@H](N4C6COCC4C6)CC5)cc23)cc1 [Example 101, 6-[(7S)-2-{3-[4-(3-Methanesulfonylpyridin-2-yl)phenyl]-1H-pyrazolo[3,4-b]pyridin-5-yl}-6,7,8,9-tetrahydro-5H-benzo[7]annulen-7-yl]-3-oxa-6-azabicyclo[3.1.1]heptane]	0.1 to 1	< 0.1
Cc1ncc(C)c(-c2ccc(-c3n[nH]c4ncc(-c5ccc6c(c5)CC[C@@H](N5C7COCC5C7)CC6)cc34)cc2)n1 [Example 122, 6-[(7S)-2-{3-[4-(2,5-Dimethylpyrimidin-4-yl)phenyl]-1H-pyrazolo[3,4-b]pyridin-5-yl}-6,7,8,9-tetrahydro-5H-benzo[7]annulen-7-yl]-3-oxa-6-azabicyclo[3.1.1]heptane]	0.1 to 1	< 0.1
Cc1cc(-c2ncccc2C)ccc1-c1n[nH]c2ncc(-c3ccc4c(c3)CC[C@@H](N3C5COCC3C5)CC4)cc12 [Example 30, 6-[(7S)-3-[3-[2-Methyl-4-(3-methylpyridin-2-yl)phenyl]-1H-pyrazolo[3,4-b]pyridin-5-yl]-6,7,8,9-tetrahydro-5H-benzo[7]annulen-7-yl]-3-oxa-6-azabicyclo[3.1.1]heptane]	> 1	< 0.1

The next lines start with the values.

IC50 [1] [µM]	IC50 [2] [µM]	Compound
0.1 to 1	0.1 to 1	O=C1CCCN1c1cccnc1-c1ccc(-c2n[nH]c3ncc(-c4ccc5c(c4)CC[C@@H](N4C6COCC4C6)CC5)cc23)cc1 [Example 177, 1-[2-(4-{5-[(7S)-7-{3-Oxa-6-azabicyclo[3.1.1]heptan-6-yl}-6,7,8,9-tetrahydro-5H-benzo[7]annulen-2-yl]-1H-pyrazolo[3,4-b]pyridin-3-yl}phenyl)pyridin-3-yl]pyrrolidin-2-one]
0.1 to 1	> 1	Cc1ccc(-c2ccc(-c3n[nH]c4ncc(-c5ccc6c(c5)CC[C@@H](N5C7COCC5C7)CC6)cc34)cc2)nc1 [Example 115, 6-[(7S)-2-{3-[4-(5-Methylpyridin-2-yl)phenyl]-1H-pyrazolo[3,4-b]pyridin-5-yl}-6,7,8,9-tetrahydro-5H-benzo[7]annulen-7-yl]-3-oxa-6-azabicyclo[3.1.1]heptane]
< 0.1	< 0.1	Cn1cnnc1-c1ccc(-c2n[nH]c3ncc(-c4ccc5c(c4)CC[C@@H](N4C6COCC4C6)CC5)cc23)cc1 [Example 169, 6-[(7S)-2-{3-[4-(4-Methyl-4H-1,2,4-triazol-3-yl)phenyl]-1H-pyrazolo[3,4-b]pyridin-5-yl}-6,7,8,9-tetrahydro-5H-benzo[7]annulen-7-yl]-3-oxa-6-azabicyclo[3.1.1]heptane]
